Patent publication US6929799B2, “D-alanine racemase mutants of mycobacteria and uses therefore” (priority 2001, dated 2005)
≈ marks a conversion by molar mass, not a printed value. Like-named read-outs stand apart in the source and are kept apart here.

What was measured:
[1] = tested on: M. smegmatis TAM23 alr mutant; assay: MIC by microplate twofold dilution, alr mutant strain; assay type: cell-based, Mycobacterium smegmatis; settings: for MIC: Mycolicibacterium smegmatis, TAM23ALRMUTANT
[2] = tested on: M. smegmatis wild type mc2155; assay: microbe, parasite or virus in culture; assay type: cell-based, Mycobacterium smegmatis; settings: for MIC: Mycolicibacterium smegmatis
M. smegmatis mc2155 = assay type: cell-based, Mycobacterium smegmatis
D-alanine ligase = settings: David, 1969; Chacon, Ph.D. thesis; cited from earlier work
M. smegmatis TAM23 = assay: Bactericidal action of DCS in broth culture, alr mutant strain; assay type: cell-based, Mycobacterium smegmatis
[3] = target: M. smegmatis D-alanine racemase (AlrA) (Mycolicibacterium smegmatis, UniProt P94967); settings: Caceres et al., 1997; listed as DCS; cited from earlier work
M. smegmatis D-alanine racemase (AlrA), sequence (P94967 whole entry): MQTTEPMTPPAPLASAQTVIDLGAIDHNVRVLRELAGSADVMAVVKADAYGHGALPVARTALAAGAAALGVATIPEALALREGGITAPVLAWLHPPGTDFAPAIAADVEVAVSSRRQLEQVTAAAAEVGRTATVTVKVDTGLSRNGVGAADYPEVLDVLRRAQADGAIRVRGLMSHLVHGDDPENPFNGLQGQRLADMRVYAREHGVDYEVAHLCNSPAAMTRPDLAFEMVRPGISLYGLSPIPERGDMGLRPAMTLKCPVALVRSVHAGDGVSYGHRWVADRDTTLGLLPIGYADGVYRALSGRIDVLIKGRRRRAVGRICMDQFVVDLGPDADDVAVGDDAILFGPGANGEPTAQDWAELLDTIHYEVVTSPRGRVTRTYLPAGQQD

[4] = 48 h, read-out: Minimal Inhibitory Concentration (MIC), TAM23 alr mutant, inoculum grown with 50 mM D-alanine, Middlebrook 7H9, 48 h
[5] = 48 h, read-out: Minimal Inhibitory Concentration (MIC), TAM23 alr mutant, inoculum grown without D-alanine, Middlebrook 7H9, 48 h
[6] = MC2155, 48 h, read-out: Minimal Inhibitory Concentration (MIC)

Row | SMILES | MIC [1, 4] [µg/mL] | MIC [1, 5] [µg/mL] | MIC [2, 6] [µg/mL] | MIC ([1]; TAM23, independent of prior growth conditions of the inocula, read-out: MIC with D-alanine added directly into the MIC test cultures) [µg/mL] | MIC for TAM23, times lower than the MIC for the wild-type strain ([1]; inoculum grown with D-alanine, washed) | Sensitivity of TAM23 relative to wild type (MIC ratio) ([1]; inoculum grown without D-alanine) | Minimal Inhibitory Concentration (MIC) [2] [µg/mL] | MIC ([2]; MC2155, read-out: MIC with D-alanine added directly into the MIC test cultures) [µg/mL] | Bactericidal effect (optical density and viable counts) (M. smegmatis mc2155) | Inhibition of D-alanine ligase activity (D-alanine ligase) | Bactericidal effect (optical density and viable counts) (M. smegmatis TAM23; DCS at 50 times the MIC (128 μg/ml), broth without D-alanine, up to 72 h) | Bactericidal drug concentration for mutant strain, fold lower than for wild-type strain (M. smegmatis TAM23; absolute drug concentrations) [fold] | Inhibition of D-alanine racemase [3]
1 | NCC[C@H](O)C(=O)N[C@@H]1C[C@H](N)[C@@H](O[C@H]2O[C@H](CN)[C@@H](O)[C@H](O)[C@H]2O)[C@H](O)[C@H]1O[C@H]1O[C@H](CO)[C@@H](O)[C@H](N)[C@H]1O [Amikacin, amikacin] | 1.56 (≈ 2.66 µM) | 1.56 (≈ 2.66 µM) | 1.56 (≈ 2.66 µM) |  |  |  |  |  |  |  |  |  | 
2 | N[C@@H]1CON=C1O [D-Cycloserine, D-cycloserine] | 10.2 (≈ 99.9 µM) | 2.56 (≈ 25.1 µM) | 75 (≈ 735 µM) | 1200 (≈ 11800 µM) | about 7.5 times | about 30 fold | 75.0 | 1200 (≈ 11800 µM) | rapid death by lysis | inhibited | rapid death by lysis | 30 | inhibited by DCS in a concentration-dependent manner
3 | CO[C@H]1/C=C/O[C@@]2(C)Oc3c(C)c(O)c4c(c3C2=O)C2=NC3(CCN(CC(C)C)CC3)NC2=C(NC(=O)/C(C)=C\C=C\[C@H](C)[C@H](O)[C@@H](C)[C@@H](O)[C@@H](C)[C@H](OC(C)=O)[C@@H]1C)C4=O [Rifabutin, rifabutin] | 1 (≈ 1.18 µM) | 2 (≈ 2.36 µM) | 2 (≈ 2.36 µM) |  |  |  |  |  |  |  |  |  | 
4 | CC[C@@H](CO)NCCN[C@@H](CC)CO [Ethambutol, ethambutol] | 3.13 (≈ 15.3 µM) | 3.13 (≈ 15.3 µM) | 3.13 (≈ 15.3 µM) |  |  |  |  |  |  |  |  |  | 
